Results from ChEMBL document CHEMBL1201862, “PubChem BioAssay data set” (2004).
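Growth conditions: 96-well plates. Treatment: test compound, 48 hours, 5 concentrations. Analysis: linear interpolation between bracketing concentrations; unreached endpoints set to highest concentration. GI50 marks 50% less growth.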 Active and inactive are the calls of the source. No stated cut-off is given here; in the data, active = GI50 up to about 1.1 µM and inactive = higher.

Assays:
Assay in all cases: DTP human tumour cell line panel, 48 h
OVCAR-4 = tested on: OVCAR-4
A549 = tested on: A549
K562 = tested on: K562
SF-295 = tested on: SF-295
SK-MEL-28 = tested on: SK-MEL-28
SN12C = tested on: SN12C
KM12 = tested on: KM12
SR = tested on: SR
MDA-MB-435 = tested on: MDA-MB-435
HOP-62 = tested on: HOP-62
HCT-116 = tested on: HCT-116
IGROV-1 = tested on: IGROV-1
OVCAR-5 = tested on: OVCAR-5
NCI-H23 = tested on: NCI-H23
COLO 205 = tested on: COLO 205
SF-268 = tested on: SF-268
HL-60 = tested on: HL-60
UO-31 = tested on: UO-31
ACHN = tested on: ACHN
M14 = tested on: M14

Measured: GI50

CCC(=O)Nc1cccc(/N=C/c2ccc(OC(=O)/C=C\c3ccccc3)cc2)c1
inactive: OVCAR-4 45.4 µM | A549 54 µM | K562 39.3 µM | SF-295 41.3 µM | SK-MEL-28 61.4 µM | SN12C > 75 µM | KM12 49.2 µM | SR 54.7 µM | MDA-MB-435 > 75 µM | HOP-62 > 75 µM | HCT-116 > 75 µM | IGROV-1 37.8 µM | OVCAR-5 > 75 µM | NCI-H23 > 75 µM | COLO 205 64.7 µM | SF-268 36.7 µM | HL-60 > 75 µM | UO-31 51.2 µM | ACHN 39 µM | M14 > 75 µM

CC1(C)O[C@H]2OC3CCC(=O)CC3(O)[C@H]2O1 (stereo not given in full)
inactive: OVCAR-4 > 100 µM | A549 > 100 µM | K562 > 100 µM | SF-295 > 100 µM | SK-MEL-28 > 100 µM | SN12C > 100 µM | KM12 > 100 µM | SR > 100 µM | MDA-MB-435 > 100 µM | HOP-62 > 100 µM | HCT-116 > 100 µM | IGROV-1 > 100 µM | OVCAR-5 > 100 µM | NCI-H23 > 100 µM | COLO 205 > 100 µM | SF-268 > 100 µM | HL-60 > 100 µM | UO-31 > 100 µM | ACHN > 100 µM | M14 > 100 µM

COc1cccc(C2SCC(=O)N2c2ccc(-c3ccc(-n4c(-c5ccccc5)nc5ccccc5c4=O)cc3)cc2)c1OC (stereo not given)
inactive: OVCAR-4 77.6 µM | A549 83.8 µM | K562 73.6 µM | SF-295 > 100 µM | SK-MEL-28 > 100 µM | SN12C > 100 µM | KM12 50.4 µM | SR 60.1 µM | MDA-MB-435 53.5 µM | HOP-62 > 100 µM | HCT-116 59.8 µM | IGROV-1 99.1 µM | OVCAR-5 > 100 µM | NCI-H23 > 100 µM | COLO 205 > 100 µM | SF-268 71.8 µM | HL-60 73.8 µM | UO-31 32.8 µM | ACHN > 100 µM | M14 > 100 µM

O=C(O)CSc1ccn(Cc2ccccc2)c1
inactive: OVCAR-4 > 100 µM | A549 > 100 µM | K562 > 100 µM | SF-295 > 100 µM | SK-MEL-28 > 100 µM | SN12C > 100 µM | KM12 > 100 µM | SR > 100 µM | MDA-MB-435 > 100 µM | HOP-62 > 100 µM | HCT-116 > 100 µM | IGROV-1 > 100 µM | OVCAR-5 > 100 µM | NCI-H23 > 100 µM | COLO 205 > 100 µM | SF-268 > 100 µM | HL-60 > 100 µM | UO-31 > 100 µM | ACHN > 100 µM | M14 > 100 µM

CCOC(=O)/C=C(\C(=O)OCC)n1ccc(=O)n(Cc2cn(COCCOC(C)=O)nn2)c1=O
inactive: OVCAR-4 19.5 µM | A549 > 76.4 µM | K562 24 µM | SF-295 > 100 µM | SK-MEL-28 18 µM | SN12C 20.7 µM | KM12 29.6 µM | SR 21 µM | MDA-MB-435 18.7 µM | HOP-62 98.6 µM | HCT-116 16.3 µM | IGROV-1 21.1 µM | OVCAR-5 23.4 µM | NCI-H23 17.7 µM | COLO 205 7.94 µM | SF-268 26.1 µM | HL-60 12.7 µM | UO-31 17.7 µM | ACHN 7.05 µM | M14 39.8 µM

COC(=O)CN1c2nc(C#N)c(C#N)nc2N(CC(=O)OC)c2nc(C#N)c(C#N)nc21
inactive: OVCAR-4 3.1 µM | A549 12 µM | K562 1.51 µM | SF-295 19.5 µM | SK-MEL-28 3.74 µM | SN12C 3.34 µM | KM12 8.22 µM | SR 2 µM | MDA-MB-435 2.64 µM | HOP-62 16.5 µM | HCT-116 1.58 µM | IGROV-1 3.46 µM | OVCAR-5 8 µM | NCI-H23 2.99 µM | COLO 205 1.26 µM | SF-268 4.05 µM | HL-60 2.26 µM | UO-31 1.69 µM | ACHN 1.59 µM | M14 1.84 µM

CC(=O)OC1C2CCC3CC2C2(SCCS2)C31 (stereo not given)
inactive: OVCAR-4 > 100 µM | A549 > 100 µM | K562 > 100 µM | SF-295 > 100 µM | SK-MEL-28 > 100 µM | SN12C > 100 µM | KM12 > 100 µM | SR > 100 µM | MDA-MB-435 > 100 µM | HOP-62 87.7 µM | HCT-116 > 100 µM | IGROV-1 > 100 µM | OVCAR-5 > 100 µM | NCI-H23 > 100 µM | COLO 205 > 100 µM | SF-268 > 100 µM | HL-60 70.8 µM | UO-31 > 100 µM | ACHN > 100 µM | M14 > 100 µM

O=C1CC(c2cccc([N+](=O)[O-])c2)C2(C(=O)NC(=O)NC2=O)C(c2cccc([N+](=O)[O-])c2)C1 (stereo not given)
inactive: OVCAR-4 > 100 µM | A549 > 100 µM | K562 67.6 µM | SF-295 34.5 µM | SK-MEL-28 > 100 µM | SN12C > 100 µM | KM12 27.5 µM | SR 55.6 µM | MDA-MB-435 > 100 µM | HOP-62 > 100 µM | HCT-116 20.1 µM | IGROV-1 60.7 µM | OVCAR-5 > 100 µM | NCI-H23 > 100 µM | COLO 205 > 100 µM | SF-268 19.7 µM | HL-60 > 100 µM | UO-31 88.3 µM | ACHN > 100 µM | M14 > 100 µM

COc1ccc(OC)c(C[P+](c2ccccc2)(c2ccccc2)c2ccccc2)c1
active: K562 0.445 µM | KM12 1.11 µM | SR 0.601 µM | MDA-MB-435 0.984 µM | HCT-116 1.02 µM | IGROV-1 0.971 µM | COLO 205 1.1 µM | HL-60 0.434 µM
inactive: OVCAR-4 4.01 µM | A549 3.56 µM | SF-295 3.96 µM | SK-MEL-28 3.26 µM | SN12C 5.89 µM | HOP-62 3.77 µM | OVCAR-5 5.27 µM | NCI-H23 2.1 µM | SF-268 3.72 µM | UO-31 21.6 µM | ACHN 4.8 µM | M14 2.42 µM

CCOc1ccc(/N=C/c2ccnc3ccccc23)cc1
active: SR 0.752 µM | HCT-116 0.912 µM
inactive: OVCAR-4 62.8 µM | A549 > 86.3 µM | K562 3.11 µM | SF-295 49.1 µM | SK-MEL-28 50.1 µM | SN12C 29 µM | KM12 19.7 µM | MDA-MB-435 42.7 µM | HOP-62 54.6 µM | IGROV-1 43 µM | OVCAR-5 99.3 µM | NCI-H23 49.3 µM | COLO 205 81.3 µM | SF-268 27.2 µM | HL-60 2.05 µM | UO-31 45.2 µM | ACHN 58.2 µM | M14 30.3 µM

C=C1C(=O)CC2C(=O)C(C)(O)CC/C=C(\C)C(=O)CC12 (stereo not given)
inactive: OVCAR-4 37.6 µM | A549 60.1 µM | K562 6.37 µM | SF-295 > 100 µM | SK-MEL-28 24.3 µM | SN12C 15.2 µM | KM12 32.6 µM | SR 20.2 µM | MDA-MB-435 24.6 µM | HOP-62 > 78.9 µM | HCT-116 10.3 µM | IGROV-1 15.3 µM | OVCAR-5 20.7 µM | NCI-H23 16.9 µM | COLO 205 9.84 µM | SF-268 19.5 µM | HL-60 1.53 µM | UO-31 6.7 µM | ACHN 10.2 µM | M14 16.4 µM

C=CCn1c(-c2cc(C(C)(C)C)c(O)c(C(C)(C)C)c2)cs/c1=N\C(P(=O)(O)O)P(=O)(O)O
inactive: OVCAR-4 > 100 µM | A549 > 100 µM | K562 > 100 µM | SF-295 > 100 µM | SK-MEL-28 > 100 µM | SN12C > 100 µM | KM12 83 µM | SR > 100 µM | MDA-MB-435 > 100 µM | HOP-62 > 100 µM | HCT-116 14.7 µM | IGROV-1 > 100 µM | OVCAR-5 > 100 µM | NCI-H23 > 100 µM | COLO 205 > 100 µM | SF-268 > 100 µM | HL-60 19.9 µM | UO-31 > 100 µM | ACHN > 100 µM | M14 > 100 µM

O=c1ccc2[n+]([O-])c3ccc(O)cc3oc-2c1 [RESAZURIN]
inactive: OVCAR-4 23.4 µM | A549 4.31 µM | K562 10.5 µM | SF-295 7.41 µM | SK-MEL-28 10.2 µM | SN12C 18.2 µM | KM12 5.19 µM | SR 15.3 µM | MDA-MB-435 1.89 µM | HOP-62 18.7 µM | HCT-116 16.7 µM | IGROV-1 25.2 µM | OVCAR-5 23.6 µM | NCI-H23 2.56 µM | COLO 205 12.9 µM | SF-268 19.2 µM | HL-60 23.1 µM | UO-31 1.93 µM | ACHN 5.65 µM | M14 7.83 µM

CCC1(O)C(=O)OCc2c1cc1n(c2=O)Cc2cc3ccc(C=O)cc3nc2-1 (stereo not given)
inactive: OVCAR-4 3.33 µM | A549 2.13 µM | K562 1.91 µM | SF-295 3.23 µM | SK-MEL-28 27.1 µM | KM12 > 86.5 µM | MDA-MB-435 7.18 µM | HCT-116 1.34 µM | IGROV-1 8.09 µM | OVCAR-5 7.29 µM | NCI-H23 2.07 µM | COLO 205 9.08 µM | HL-60 1.36 µM | UO-31 1.83 µM
active: SN12C 0.387 µM | SR < 0.013 µM | HOP-62 0.294 µM | SF-268 0.321 µM | ACHN 0.713 µM | M14 1.12 µM
